Results from patent US20140106387A1, “METHOD FOR CONTROLLING NAD(P)/NAD(P)H RATIO BY OXIDOREDUCTASE” (MD BIOALPHA CO., LTD., priority 2006, published 2014).

Assays:
MN9D cells = test: intracellular ATP concentration in dopaminergic neuronal cells; format: cell-based; conditions: 5 μM
Method: (§1) Dopaminergic (MN9D) and non-dopaminergic (MN9X) neuronal cells were treated with 5 μM pyran-1,2-naphthoquinone and the ATP concentration was periodically measured.

HEK293 cells [1] = test: intracellular ATP, ADP and AMP levels by LC-MS in HEK293; format: cell-based, human; conditions: HEK293 cells having no NQO1 activity, 2 hours
Method: Samples were analyzed using an Agilent 1100 series LC/MSD system equipped with G1322A degasser, G1312A binary pump, G1315A photo-diode-array detector, 59987A electrospray interface and 5989B mass spectrometer. ES-MS analysis was performed using an Agilent 5989 electrospray (ES) mass spectrometer (MS) with an Agilent Atmospheric Pressure Ionization (API) interface fitted with a hexapole ion guide. Chromatogram was automatically integrated with the aid of Chemstation software, and concentrations were determined using a standard calibration curve.
(§2) Acid extraction was used for analysis of an AOPN concentration in the cells and liver tissues. 400 μl of 6% HClO4 was added to the cells cultured in a 100 mm dish, whereas a two-fold volume of 6% HClO4 was added to the liver tissues which were then immediately homogenized. Each mixture was centrifuged at 14,000 g and 4° C. for 10 min, and the resulting supernatants were neutralized by addition of 1 M borate buffer (pH 11) containing 4 mM EDTA in an amount of 75%. Samples were aliquoted and stored at a temperature of −80° C.
A mobile phase was 100 mM ammonium acetate:MeOH (98:2, v/v), and preparations were filtered through a 0.22-μm Millipore filter. A flow rate was set to 0.8 mL/min and detection was made at 254 nm. Separation was carried out using a ZORBAX Bonus-RP C18 column (3.5 μm, 4.6×150 mm I.D., Waters, USA). […]

MN9X cells = test: intracellular ATP concentration in non-dopaminergic neuronal cells; format: cell-based; conditions: 5 μM
Method: as §1

[2] = AMP/ATP, NAD+/NADH and NADP+/NADPH ratios in liver after intravenous administration; format: in vivo, mouse
Method: as §2
Analysis of an RPN concentration in liver tissues was carried out using alkali extraction. An equal volume of ice-cold 0.5 M KOH was added to the liver tissues which were then immediately homogenized. Thereafter, a two-fold volume of ice-cold distilled water was added and mixed with the liver tissues for 2 min, and the mixture was centrifuged using an Amicon ultrafiltration membrane (MILLIPORE) at 14,000 g and 4° C. for 40 min. The thus-obtained filtrate was neutralized by addition of 1 M KH2PO4 (pH 6.5) in an amount of 10%. Samples were aliquoted and stored at a temperature of −70° C. Concentration determination was made within 72 hours.
A mobile phase was 100 mM ammonium acetate:MeOH (98:2, v/v), and preparations were filtered through a 0.22-μm Millipore filter. A flow rate was set to 0.8 mL/min and detection was made at 254 nm. Separation was carried out using a ZORBAX Bonus-RP C18 column (3.5 μm, 4.6×150 mm I.D., […]). The samples were maintained at 4° C. in a thermostatted autosampler until they were loaded onto the column.
In order to assay ATP, ADP, AMP, NAD and NADP levels, 450 μl of 5 mM ammonium acetate was added to 50 μl of a liver sample extracted with perchloric acid (HClO4) which was then diluted ten times. Diluted samples were vortexed and mixed for 1 min, and the mixture was filtered through a 0.2 μm nylon syringe filter (Whatman, Brentford, UK). Then, 5 μl of each aliquot was injected into a HPLC system. Each standard solution (50 μl) for these analytes was added to 50 μl of an extraction solution containing 2-chloroadenosine (internal standard) and 400 μl of 5 mM ammonium acetate, and mixed and filtered in the same manner as in the above samples. For analysis of NADH and NADPH, each 100 μl of liver samples extracted with a potassium hydroxide (KOH) solution was diluted twice with an equal amount of a 5 mM ammonium acetate (KOH solution for standards). HPLC system consists of an Agilent 1100 series vacuum degasser, a binary pump, an autosampler, a thermostatted column compartment, and a DAD detector (Agilent Technologies, Palo Alto, Calif.). Adenine and nucleotide analogues were separated by Waters XTena MS C18 2.1×150 mm, 3.5 μm column (Waters, Milford, Mass., USA) chromatography using a gradient method. A mobile phase for adenine and nucleotide analogues was 5 mM ammonium acetate (A) and methanol (B). NAD^+-related compounds were separated by linear gradient elution of initial 98% (A) to final 70% (B) at a time point of 8 min. The mobile phase was developed at 70% (B) for 7 min. Finally, the mobile phase was returned to 98% (A) at a point of 16 min, and reequilibrated to 98% (A) for 12 min. A flow rate was set to 0.2 mL/min throughout the entire period of time. An injection volume was 5 μl. Electrospray-ionization mass spectrometry (ESI-MS) was carried out in a positive ion mode using MDS Sciex API 4000 Triple Quadrupole Mass Spectrometer (Applied Biosystems, Ontario, Calif.).
5 mg/kg of pyrano-1,2-naphthoquinone was intravenously administered to a tail vein of DIO mice and changes in an NADH amount and an NAD^+/NADH ratio of liver tissues were examined for 6 hours.

HepG2 cells = test: intracellular NADH / NAD(P)H concentration in HepG2 cells; format: cell-based, human
Method: A water-soluble tetrazolium salt was used to monitor the amount of NAD(P)H through its reduction to a yellow colored formazan dye. The total amount of NAD(P)H within viable cells in the medium was determined periodically by a spectrophotometer. Cells were seeded in 96-well plates (2×10^4 cells/well) and were cultured in 100 μl of a medium containing fetal bovine serum (FBS) and antibiotics for 24 hours. Immediately after treatment of the cells with a candidate compound (e.g., pyrano-1,2-naphthoquinone) at indicated concentrations and a 1/10 volume of a CCK-8 solution (Dojindo Molecular Technology), absorbance measurements were carried out using a spectrophotometer. […] In addition, a medium blank was prepared with only medium and physiological saline. In order to monitor monochromatic fluorescence (350 nm), light was illuminated using a 75 W xenon arc lamp directed via a 10 Hz chopper wheel; specific fluorescence intensity was measured at a wavelength of 405±15 nm and 460±10 nm.

[3] = AMP/ATP, NAD+/NADH and NADP+/NADPH ratios in liver after intravenous administration; format: in vivo, mouse; conditions: Lean mice
HEK293 cells [4] = test: mitochondrial oxygen consumption in HEK293 cells; format: cell-based, human
Text: FIG. 22 is a graph showing monitoring results of mitochondrial oxygen consumption using a Clark-type oxygen electrode;

[5] = 5 mg/kg intravenous, liver of DIO mice

SMILES: CC1(C)CCC2=C(O1)c1ccccc1C(=O)C2=O [βL, 2,2-Dimethyl-3,4-dihydro-2H-benzo[h]chromene-5,6-dione]
- intracellular ATP concentration (MN9D cells): decreased
- intracellular ATP level (HEK293 cells [1]): no significant changes in the intracellular ATP level
- intracellular ATP concentration (MN9X cells): decreased
- numerical value of NADP+ ([2]; 5 mg/kg intravenous, liver): no significant change
- time point of maximum NAD+/NADPH ratio ([2]; 5 mg/kg intravenous, liver): 120 min
- time point of highest AMP/ATP ratio [2, 5]: 30 min
- time point of maximum NAD+ amount and NAD+/NADH ratio [2, 5]: 120 min
- time point of maximum increase of AMP concentration [2, 5]: 30 min
- time point of recovery of AMP concentration to a normal level [2, 5]: 120 min
- time point of recovery of AMP/ATP ratio to the initial state [2, 5]: 360 min
- changes in the AMP/ATP and NAD+/NADP ratios ([2]; DIO mice): significant changes
- AMP/ATP and NAD+/NADH ratios in the liver compared to control group ([2]; intravenous (IV) injection): higher
- decrease of NAD(P)H (HepG2 cells; HepG2 cells having NQO1 activity, NAD(P)H fluorescence): about 40%
- intracellular NADH concentration (HepG2 cells; HepG2 having an NQO1 activity, treatment for 2 hours, real-time measurement): concentration-dependent decrease of NADH
- changes in the AMP/ATP ratio and NAD+/NADP ratio compared with control [3]: less changes
- increased oxygen consumption (HEK293 cells [4]): not observed
